# Experimental data taken from patent US9113629B2, “4-amino-6-(4-substituted-phenyl)-picolinates and 6-amino-2-(4-substituted-phenyl)-pyrimidine-4-carboxylates and their use as herbicides” (DOW AGROSCIENCES LLC, priority 2013, dated 2015).
# Key:
# [1] = tested on: APESV: bentgrass (Apera spica-venti); experiment: Post-emergent Test III, herbicidal activity in wheat and barley; type: in vivo; details: Table 9, 21 d; for pest or weed control at 35 g/ha / pest or weed control at 70 g/ha / pest or weed control at 140 g/ha: Apera spica-venti, post-emergence, 504 h, post-emergent, read-out: Visual Growth Reduction (%) 21 Days After Application APESV; for pest or weed control at 35 g/ha: 35 g ai/ha; for pest or weed control at 70 g/ha: 70 g ai/ha; for GR50 APESV: dose for 50 percent growth reduction; for GR50 APESV / GR80 APESV: probit analysis; for GR80 APESV: dose for 80 percent growth reduction; for pest or weed control at 140 g/ha: 140 g ai/ha
# Description: (§1) Post-emergent Test III. Seeds of the desired test plant species were planted in Sun Gro MetroMix® 306 planting mixture, which typically has a pH of 6.0 to 6.8 and an organic matter content of about 30 percent, in plastic pots with a surface area of 103.2 square centimeters (cm^2). When required to ensure good germination and healthy plants, a fungicide treatment and/or other chemical or physical treatment was applied. The plants were grown for 7-36 days (d) in a greenhouse with an approximate 14 hour (h) photoperiod which was maintained at about 18° C. during the day and 17° C. during the night. Nutrients and water were added on a regular basis and supplemental lighting was provided with overhead metal halide 1000-Watt lamps as necessary. The plants were employed for testing when they reached the second or third true leaf stage.
# (§2) A weighed amount, determined by the highest rate to be tested, of each test compound was placed in a 25 mL glass vial and was dissolved in 4 mL of a 97:3 v/v mixture of acetone and DMSO to obtain concentrated stock solutions. […] The concentrated stock solutions obtained were diluted with 20 mL of an aqueous mixture containing acetone, water, isopropyl alcohol, DMSO, Agri-Dex crop oil concentrate, and X-77 surfactant in a 48:39:10:1.5:1.5:0.02 v/v ratio to obtain spray solutions containing the highest application rates. Additional application rates were obtained by serial dilution of 12 mL of the high rate solution into a solution containing 2 mL of 97:3 v/v mixture of acetone and DMSO and 10 mL of an aqueous mixture containing acetone, water, isopropyl alcohol, DMSO, Agri-Dex crop oil concentrate, and X-77 surfactant in a 48:39:10:1.5:1.5:0.02 v/v ratio to obtain ½×, ¼×, ⅛× and 1/16× rates of the high rate. Compound requirements are based upon a 12 mL application volume at a rate of 187 liters per hectare (L/ha). Formulated compounds were applied to the plant material with an overhead Mandel track sprayer equipped with 8002E nozzles calibrated to deliver 187 L/ha over an application area of 0.503 square meters at a spray height of 18 inches (43 cm) above the average plant canopy height. Control plants were sprayed in the same manner with the solvent blank.
# (§3) The treated plants and control plants were placed in a greenhouse as described above and watered by subirrigation to prevent wash-off of the test compounds. After 21 d, the condition of the test plants as compared with that of the untreated plants was determined visually and scored on a scale of 0 to 100 percent where 0 corresponds to no injury and 100 corresponds to complete kill.
# (§4) By applying the well-accepted probit analysis as described by J. Berkson in Journal of the American Statistical Society, 48, 565 (1953) and by D. Finney in “Probit Analysis” Cambridge University Press (1952), herbicidal injury of a specific compound at various rates can be used to calculate GR20, GR50, GR80 and GR90 values, which are defined as growth reduction factors that correspond to the effective dose of herbicide required to provide plant growth reduction (GR) of 20 percent, 50 percent, 80 percent and 90 percent, respectively. Probit analysis was applied to data collected from multiple dose rates of individual compounds utilizing the procedures explained in the following examples. The analysis of those dose rates is captured in the following tables.
# [2] = tested on: TRZSS: wheat, including spring and winter (Triticum aestivum); experiment: as above; type: in vivo; details: Table 9, 21 d; for GR20 TRZSS: dose for 20 percent growth reduction, probit analysis; for pest or weed control at 35 g/ha / pest or weed control at 70 g/ha / pest or weed control at 140 g/ha: Triticum aestivum, post-emergence, 504 h, post-emergent, read-out: Visual Growth Reduction (%) 21 Days After Application TRZSS; for pest or weed control at 35 g/ha: 35 g ai/ha; for pest or weed control at 70 g/ha: 70 g ai/ha; for pest or weed control at 140 g/ha: 140 g ai/ha
# Description: as §1, §2, §3, §4
# [3] = tested on: SETVI: green foxtail (Setaria viridis); experiment: as above; type: in vivo; details: Table 9, 21 d; for pest or weed control at 35 g/ha / pest or weed control at 70 g/ha / pest or weed control at 140 g/ha: Setaria viridis, post-emergence, 504 h, post-emergent, read-out: Visual Growth Reduction (%) 21 Days After Application SETVI; for pest or weed control at 35 g/ha: 35 g ai/ha; for pest or weed control at 70 g/ha: 70 g ai/ha; for GR50 SETVI: dose for 50 percent growth reduction; for GR50 SETVI / GR80 SETVI: probit analysis; for GR80 SETVI: dose for 80 percent growth reduction; for pest or weed control at 140 g/ha: 140 g ai/ha
# Description: as §1, §2, §3, §4
# [4] = tested on: LOLSS: ryegrass including, Italian ryegrass (Lolium multiflorum), rigid ryegrass (Lolium rigidum), annual ryegrass (Lolium multiflorum subsp. Gaudini); experiment: as above; type: in vivo; details: Table 9, probit analysis, 21 d; for GR50 LOLSS: dose for 50 percent growth reduction; for GR80 LOLSS: dose for 80 percent growth reduction
# Description: as §1, §2, §3, §4
# [5] = as above; type: in vivo, Lolium multiflorum, Lolium rigidum; details: Lolium multiflorum, post-emergence, 504 h, Table 9, post-emergent, 21 d, read-out: Visual Growth Reduction (%) 21 Days After Application LOLSS; for pest or weed control at 35 g/ha: 35 g ai/ha; for pest or weed control at 70 g/ha: 70 g ai/ha; for pest or weed control at 140 g/ha: 140 g ai/ha
# Description: as §1, §2, §3, §4
# [6] = tested on: KCHSC: kochia (Kochia scoparia); experiment: as above; type: in vivo; details: Table 9, 21 d; for pest or weed control at 35 g/ha / pest or weed control at 70 g/ha / pest or weed control at 140 g/ha: Bassia scoparia, post-emergence, 504 h, post-emergent, read-out: Visual Growth Reduction (%) 21 Days After Application KCHSC; for pest or weed control at 35 g/ha: 35 g ai/ha; for pest or weed control at 70 g/ha: 70 g ai/ha; for GR50 KCHSC: dose for 50 percent growth reduction; for GR50 KCHSC / GR80 KCHSC: probit analysis; for GR80 KCHSC: dose for 80 percent growth reduction; for pest or weed control at 140 g/ha: 140 g ai/ha
# Description: as §1, §2, §3, §4
# [7] = tested on: HORSS: barley, including spring and winter (Hordeum vulgare); experiment: as above; type: in vivo; details: Table 9, 21 d; for pest or weed control at 35 g/ha / pest or weed control at 70 g/ha / pest or weed control at 140 g/ha: Hordeum vulgare, post-emergence, 504 h, post-emergent, read-out: Visual Growth Reduction (%) 21 Days After Application HORSS; for pest or weed control at 35 g/ha: 35 g ai/ha; for pest or weed control at 70 g/ha: 70 g ai/ha; for GR20 HORSS: dose for 20 percent growth reduction, probit analysis; for pest or weed control at 140 g/ha: 140 g ai/ha
# Description: as §1, §2, §3, §4
SMILES,pest or weed control at 35 g/ha [1] [%],pest or weed control at 70 g/ha [1] [%],GR50 APESV [1] [g ai/ha],GR80 APESV [1] [g ai/ha],GR20 TRZSS [2] [g ai/ha],pest or weed control at 35 g/ha [2] [%],pest or weed control at 70 g/ha [2] [%],pest or weed control at 35 g/ha [3] [%],pest or weed control at 70 g/ha [3] [%],GR50 SETVI [3] [g ai/ha],GR80 SETVI [3] [g ai/ha],GR50 LOLSS [4] [g ai/ha],GR80 LOLSS [4] [g ai/ha],pest or weed control at 35 g/ha [5] [%],pest or weed control at 70 g/ha [5] [%],pest or weed control at 35 g/ha [6] [%],pest or weed control at 70 g/ha [6] [%],GR50 KCHSC [6] [g ai/ha],GR80 KCHSC [6] [g ai/ha],pest or weed control at 35 g/ha [7] [%],other results
C#Cc1ccc(-c2nc(C(=O)O)c(C=C)c(N)c2F)cc1 [Compound 36],0 to 29,0 to 29,>140,>140,1,75 to 84,75 to 84,0 to 29,30 to 44,126,>140,>140,>140,0 to 29,0 to 29,0 to 29,0 to 29,>140,>140,30 to 44,pest or weed control at 70 g/ha [7]: 60 to 74%; GR20 HORSS [7]: 16 g ai/ha
"Nc1c(F)c(-c2cc(F)c(Br)cc2F)nc(C(=O)O)c1Cl [Compound 42, 4-amino-6-(4-bromo-2,5-difluorophenyl)-3-chloro-5-fluoropicolinic acid]",85 to 94,85 to 94,7,22,1,85 to 94,85 to 94,85 to 94,85 to 94,1,19,76,>140,30 to 44,45 to 59,85 to 94,60 to 74,1,1,85 to 94,pest or weed control at 140 g/ha [1]: 95 to 100%; pest or weed control at 140 g/ha [2]: 95 to 100%; pest or weed control at 140 g/ha [3]: 95 to 100%; pest or weed control at 140 g/ha [5]: 75 to 84%; pest or weed control at 140 g/ha [6]: 95 to 100%; pest or weed control at 70 g/ha [7]: 85 to 94%; pest or weed control at 140 g/ha [7]: 95 to 100%; GR20 HORSS [7]: 1 g ai/ha
Nc1c(Cl)c(C(=O)O)nc(-c2ccc(C(F)(F)F)c(F)c2)c1Cl [Compound 146],95 to 100,95 to 100,23,34,1,75 to 84,85 to 94,45 to 59,75 to 84,41,76,>140,>140,0 to 29,0 to 29,0 to 29,0 to 29,>140,>140,75 to 84,pest or weed control at 140 g/ha [1]: 95 to 100%; pest or weed control at 140 g/ha [2]: 85 to 94%; pest or weed control at 140 g/ha [3]: 95 to 100%; pest or weed control at 140 g/ha [5]: 0 to 29%; pest or weed control at 140 g/ha [6]: 0 to 29%; pest or weed control at 70 g/ha [7]: 85 to 94%; pest or weed control at 140 g/ha [7]: 95 to 100%; GR20 HORSS [7]: 1 g ai/ha
